Laboratory results as given in the supplement of paper PMC11003180.

What was measured:
Experiment in all cases: drug sensitivity score (DSS) from 5-dose viability curve (DSS (area-based score, 0 = no response)); higher = more sensitive (stronger viability inhibition); extreme values may be limits of the assay
[1] = tested on: MDCK wild-type - doxycycline; details: doxycycline: none; 72 h
Summary of the method: (§1)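 Parental MDCK cells without doxycycline were dispensed at 2000 cells/well onto pre-spotted 384-well plates. The plates held an oncology library of 528 drugs at five doses (1-10,000 nM) and were incubated 72 h at 37 °C. Viability was read as CellTiter-Glo luminescence and scaled per plate between vehicle and positive controls. Drug sensitivity scores came from dose-response curve fits in the Breeze pipeline.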

[2] = tested on: MDCK p60AmotL2-inducible + doxycycline (p60AmotL2 expressing); details: doxycycline: 10 ng/mL; 72 h
Summary of the method: as §1, with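 “and MDCK cells with doxycycline-inducible p60AmotL2, both given” for “without”, “doxycycline at 10 ng/mL in the medium before plating,” for “doxycycline”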

[3] = tested on: MDCK wild-type + doxycycline; details: doxycycline: 10 ng/mL; 72 h
Summary of the method: as §1, with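 “and MDCK cells with doxycycline-inducible p60AmotL2, both given” for “without”, “doxycycline at 10 ng/mL in the medium before plating,” for “doxycycline”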

C[C@]1(c2nc3c(C(N)=O)cccc3[nH]2)CCCN1 [Veliparib]
drug sensitivity score [1]: 0
drug sensitivity score [2]: 0
drug sensitivity score [3]: 0

CNCc1ccc(-c2[nH]c3cc(F)cc4c3c2CCNC4=O)cc1 [Rucaparib]
drug sensitivity score [1]: 0
drug sensitivity score [2]: 0
drug sensitivity score [3]: 0

CNc1ncc2cc(-c3cc(NC(=O)NCCC(C)(C)C)c(F)cc3C)c(C)nc2n1
drug sensitivity score [1]: 2.8
drug sensitivity score [2]: 9
drug sensitivity score [3]: 5.2

CCc1c2c(nc3ccc(O)cc13)-c1cc3c(c(=O)n1C2)COC(=O)[C@]3(O)CC [SN-38]
drug sensitivity score [1]: 21.1
drug sensitivity score [2]: 24.8
drug sensitivity score [3]: 23.3

CCCN(CCC)C(=O)C1=Cc2ccc(-c3ccc(C(=O)N4CCCC4)cc3)cc2N=C(N)C1 [Motolimod]
drug sensitivity score [1]: 0
drug sensitivity score [2]: 2.5
drug sensitivity score [3]: 0.8

Cn1cc(C2=Nc3cc(NC(=O)C(N)C4CCCCC4)cc4c3C2=CNNC4=O)cn1 (stereo unspecified)
drug sensitivity score [1]: 0
drug sensitivity score [2]: 1.1
drug sensitivity score [3]: 0

CS(=O)(=O)CCNCc1ccc(-c2ccc3ncnc(Nc4ccc(OCc5cccc(F)c5)c(Cl)c4)c3c2)o1 [Lapatinib]
drug sensitivity score [1]: 0.9
drug sensitivity score [2]: 6.8
drug sensitivity score [3]: 0

CC1CCC(n2c3cnccc3c3cnc(Nc4ccc5c(n4)CCN(C(=O)CO)C5)nc32)CC1 (stereo unspecified) [AMG-925]
drug sensitivity score [1]: 0
drug sensitivity score [2]: 1.3
drug sensitivity score [3]: 0

CS(=O)(=O)N1CCN(Cc2cc3nc(-c4cccc5[nH]ncc45)nc(N4CCOCC4)c3s2)CC1 [Pictilisib]
drug sensitivity score [1]: 6.9
drug sensitivity score [2]: 14.4
drug sensitivity score [3]: 8.4

CCN(CC)CCOc1ccc(C(=C(Cl)c2ccccc2)c2ccccc2)cc1 [Clomifene]
drug sensitivity score [1]: 4.4
drug sensitivity score [2]: 5.3
drug sensitivity score [3]: 4.7

CCCCCCCCCCCCCCCCCCOP(=O)([O-])OC1CC[N+](C)(C)CC1 [Perifosine]
drug sensitivity score [1]: 0
drug sensitivity score [2]: 0
drug sensitivity score [3]: 0

C[C@@H](Oc1cc(-n2cnc3ccc(CN4CCN(C)CC4)cc32)sc1C(N)=O)c1ccccc1C(F)(F)F
drug sensitivity score [1]: 29.5
drug sensitivity score [2]: 32.1
drug sensitivity score [3]: 35.1

S=c1[nH]cnc2nc[nH]c12 [Mercaptopurine]
drug sensitivity score [1]: 2.1
drug sensitivity score [2]: 1.6
drug sensitivity score [3]: 1.8

CN(C)C/C=C/C(=O)Nc1cc2c(Nc3ccc(F)c(Cl)c3)ncnc2cc1O[C@H]1CCOC1 [Afatinib]
drug sensitivity score [1]: 4.2
drug sensitivity score [2]: 18.3
drug sensitivity score [3]: 3.5

C[C@@H]1CCN(C(=O)CC#N)C[C@@H]1N(C)c1ncnc2[nH]ccc12 [Tofacitinib]
drug sensitivity score [1]: 0
drug sensitivity score [2]: 0
drug sensitivity score [3]: 0

N#CC[C@H](C1CCCC1)n1cc(-c2ncnc3[nH]ccc23)cn1 [Ruxolitinib]
drug sensitivity score [1]: 0
drug sensitivity score [2]: 0
drug sensitivity score [3]: 0

Nc1nc(OCc2cc(Br)cs2)c2[nH]cnc2n1 [Lomeguatrib]
drug sensitivity score [1]: 0
drug sensitivity score [2]: 0
drug sensitivity score [3]: 0

Cc1nc(Nc2ncc(C(=O)Nc3c(C)cccc3Cl)s2)cc(N2CCN(CCO)CC2)n1 [Dasatinib]
drug sensitivity score [1]: 4.9
drug sensitivity score [2]: 13.7
drug sensitivity score [3]: 1.8

Cc1ccc(C(=O)N(CCCN)[C@@H](c2oc3cc(Cl)ccc3c(=O)c2Cc2ccccc2)C(C)C)cc1
drug sensitivity score [1]: 15.3
drug sensitivity score [2]: 8.8
drug sensitivity score [3]: 5.8

C[C@]12C=CC(=O)C=C1CC[C@@H]1[C@@H]2[C@@H](O)C[C@@]2(C)[C@H]1CC[C@]2(O)C(=O)CO [Prednisolone]
drug sensitivity score [1]: 1.2
drug sensitivity score [2]: 0
drug sensitivity score [3]: 0

CC1(C)OCCn2c1nc1c(N3CCOCC3)nc(-c3cnc(N)nc3)nc12 [GDC-0084]
drug sensitivity score [1]: 7
drug sensitivity score [2]: 14.9
drug sensitivity score [3]: 10.2

COC(=O)N[C@@H](C)CNc1nccc(-c2cn(C(C)C)nc2-c2cc(Cl)cc(NS(C)(=O)=O)c2F)n1 [Encorafenib]
drug sensitivity score [1]: 0.2
drug sensitivity score [2]: 0
drug sensitivity score [3]: 0

CCn1c(-c2nonc2N)nc2c(C#CC(C)(C)O)ncc(OC[C@H]3CCCNC3)c21
drug sensitivity score [1]: 0
drug sensitivity score [2]: 0.2
drug sensitivity score [3]: 0

Cc1cc(Nc2ncnc3ccc(NC4=NC(C)(C)CO4)cc23)ccc1Oc1ccn2ncnc2c1 [Tucatinib]
drug sensitivity score [1]: 0
drug sensitivity score [2]: 0
drug sensitivity score [3]: 0

Nc1nc(F)nc2c1ncn2[C@@H]1O[C@H](CO)[C@@H](O)[C@@H]1O [Fludarabine]
drug sensitivity score [1]: 0
drug sensitivity score [2]: 0
drug sensitivity score [3]: 0

Nc1ccn([C@@H]2O[C@H](CO)[C@@H](O)C2(F)F)c(=O)n1 [Gemcitabine]
drug sensitivity score [1]: 2.2
drug sensitivity score [2]: 7.7
drug sensitivity score [3]: 5.5

Nc1cc(COc2c(Cl)cc(C[C@H](N)C(=O)O)cc2Cl)c2oc(-c3ccccc3)nc2c1 [JPH203]
drug sensitivity score [1]: 0
drug sensitivity score [2]: 0
drug sensitivity score [3]: 0

Clc1ccc(C(c2ccccc2Cl)C(Cl)Cl)cc1 (stereo unspecified) [Mitotane]
drug sensitivity score [1]: 0
drug sensitivity score [2]: 0
drug sensitivity score [3]: 0

CN[C@@H](C)C(=O)N[C@H](C(=O)N1CCC[C@H]1c1nc(C(=O)c2ccc(F)cc2)cs1)C1CCCCC1 [NVP-LCL161]
drug sensitivity score [1]: 0
drug sensitivity score [2]: 0.5
drug sensitivity score [3]: 3.1

CCCS(=O)(=O)Nc1ccc(F)c(C(=O)c2c[nH]c3ncc(-c4ccc(Cl)cc4)cc23)c1F [Vemurafenib]
drug sensitivity score [1]: 0
drug sensitivity score [2]: 0
drug sensitivity score [3]: 0

CC(C)Oc1ccc(-c2nn([C@@H](C)c3oc4ccc(F)cc4c(=O)c3-c3cccc(F)c3)c3ncnc(N)c23)cc1F [TGR-1202]
drug sensitivity score [1]: 0
drug sensitivity score [2]: 3.9
drug sensitivity score [3]: 2.1

COc1cc2c(cc1OC(C)C)[C@H](c1ccc(Cl)cc1)N(c1ccc(N(C)C[C@H]3CC[C@H](N4CCN(C)C(=O)C4)CC3)cc1)C(=O)C2 [NVP-CGM097]
drug sensitivity score [1]: 5.4
drug sensitivity score [2]: 7.6
drug sensitivity score [3]: 5.3

CN(C)C1CCN(C(=O)c2ccc(NC(=O)Nc3ccc(-c4nc(N5CCOCC5)nc(N5CCOCC5)n4)cc3)cc2)CC1 [Gedatolisib]
drug sensitivity score [1]: 0
drug sensitivity score [2]: 5.2
drug sensitivity score [3]: 1.9

CC(C)NC[C@@H](C(=O)N1CCN(c2ncnc3c2[C@H](C)C[C@H]3O)CC1)c1ccc(Cl)cc1 [Ipatasertib]
drug sensitivity score [1]: 0
drug sensitivity score [2]: 2.2
drug sensitivity score [3]: 0.1

O=C(CCNC(=O)c1ccc(OC(F)(F)F)cc1)N[C@@H]1CCCc2ccccc21 [ML390]
drug sensitivity score [1]: 13.8
drug sensitivity score [2]: 18.3
drug sensitivity score [3]: 14.5

CCCC(CCC)C(=O)O [Valproic acid]
drug sensitivity score [1]: 0
drug sensitivity score [2]: 0
drug sensitivity score [3]: 0

O[C@H](C[C@H]1c2c(F)cccc2-c2cncn21)[C@H]1CC[C@H](O)CC1 [GDC-0919]
drug sensitivity score [1]: 0
drug sensitivity score [2]: 0
drug sensitivity score [3]: 0

C[C@]12CC[C@@H]3c4ccc(O)cc4C[C@@H](CCCCCCCCC[S+]([O-])CCCC(F)(F)C(F)(F)F)[C@H]3[C@@H]1CC[C@@H]2O (stereo partly specified) [Fulvestrant]
drug sensitivity score [1]: 0
drug sensitivity score [2]: 0
drug sensitivity score [3]: 0

CCCCc1nc2cc(/C=C/C(=O)NO)ccc2n1CCN(CC)CC [Pracinostat]
drug sensitivity score [1]: 15
drug sensitivity score [2]: 17.7
drug sensitivity score [3]: 15.9

CC(=O)OC[C@H]1O[C@@H]([S-])[C@H](OC(C)=O)[C@@H](OC(C)=O)[C@@H]1OC(C)=O.CCP(CC)CC.[Au+] [Auranofin]
drug sensitivity score [1]: 4.2
drug sensitivity score [2]: 4.7
drug sensitivity score [3]: 4.2

Nc1nc2cc(-c3ccc4ncc(C(=O)N5CCOCC5)n4c3)ccc2o1 [Serabelisib]
drug sensitivity score [1]: 0
drug sensitivity score [2]: 1.3
drug sensitivity score [3]: 0.1

CC[C@@H]1C(=O)N(C)c2cnc(Nc3ccc(C(=O)NC4CCN(C)CC4)cc3OC)nc2N1C1CCCC1 [BI 2536]
drug sensitivity score [1]: 19.9
drug sensitivity score [2]: 15.9
drug sensitivity score [3]: 15.6

COc1cc2ncnc(Nc3ccc(F)c(Cl)c3)c2cc1NC(=O)/C=C/CN1CCCCC1 [Dacomitinib]
drug sensitivity score [1]: 5.3
drug sensitivity score [2]: 19.3
drug sensitivity score [3]: 8.4

C[C@H]1C[C@@H](n2c(Nc3ccc(OC(F)(F)F)cc3)nc3cc(CCC(=O)O)ccc32)CC(C)(C)C1
drug sensitivity score [1]: 0
drug sensitivity score [2]: 0
drug sensitivity score [3]: 0

Cc1cc(OCc2nnc(SC3CCCC3)n2-c2cccnc2)ccc1-c1ccc(S(C)(=O)=O)cc1 [NMS-873]
drug sensitivity score [1]: 12.8
drug sensitivity score [2]: 14.7
drug sensitivity score [3]: 13.5

CC(C)C(=O)Nc1ccc([N+](=O)[O-])c(C(F)(F)F)c1 [Flutamide]
drug sensitivity score [1]: 0
drug sensitivity score [2]: 0
drug sensitivity score [3]: 0

Cn1cc(CNCC2CCN(c3ncc(C(=O)NO)cn3)CC2)c2ccccc21 [Quisinostat]
drug sensitivity score [1]: 9.8
drug sensitivity score [2]: 12.7
drug sensitivity score [3]: 8.6
